Measurements reported in patent publication US6759403B2, “Metalloporphyrins and their uses as radiosensitizers for radiation therapy” (Brookhaven Science Associates, LLC, priority 2001, dated 2004).

Assays:
EMT-6 mammary carcinomas = test: Biodistribution study of CuTCPBr in mice with EMT-6 mammary carcinomas on the back (Example 5); format: in vivo, BALB/c mice; conditions: for Boron Concentration, Tumor / Boron Concentration, Blood / Boron Concentration, Brain / Boron Concentration, Ears (skin) / Boron Concentration, Liver / Boron Concentration, Spleen / Boron Concentration, Tongue: 6 ip injections over 2 days
Protocol: Two groups of seven (7) BALB/c mice bearing EMT-6 mammary carcinomas on the back were given CuTCPBr at a dose of 432 μg/g body weight (94 μg B/gbw) in six intraperitoneal injections over two days. Two days after the last injection, the mice in one group were euthanized and the boron concentrations in various tissues were measured. Four days after the last injection, the same procedure was carried out on the second group of mice. The average boron concentrations (mean with standard deviation in parentheses) for the two groups of mice injected with CuTCPBr are listed in the second and third columns of Table 4.
The tumor to blood boron concentration ratio after two days was approximately 8:1 and after four days it increased to 232:1. The tumor to brain boron concentration ratio after two days was approximately 197:1 and after four days it increased to 225:1.

[1] = tested on: subcutaneous 9L gliosarcomas; test: Boron biodistribution after intravenous infusion in rat 9L gliosarcoma model (Examples 6 and 7); format: in vivo, Fischer 344 rats
Protocol: This example used the experimental rat 9L gliosarcoma model and the protocol used to administer porphyrins by intravenous infusion that were reported in J. NeuroOncol, 52, 111-117, 2001. Six (6) male Fischer 344 rats bearing subcutaneous 9L gliosarcomas were infused intravenously with CuTCPBr at a total dose of 220 μg/gbw over 48 hours. Tumor and blood were sampled from each at zero, one, two and three days after the end of infusion and the boron concentrations measured. In this example, the biodistribution of CuTCPBr was compared to CuTCPH. A group of six (6) male Fischer 344 rats bearing subcutaneous 9L gliosarcomas were infused intravenously with CuTCPBr at a total dose of 220 μg/gbw over 48 hours. A second group of four (4) male Fischer 344 rats bearing subcutaneous 9L gliosarcomas were infused intravenously with CuTCPH at a total dose of 195 μg/gbw. over 48 hours. Boron concentrations in tissues from both groups of rats were taken three days after the end of infusion. The results for the CuTCPBr group of rats are listed in column 2 of Table 6 and the results for the CuTCPH group of rats are listed in column 4 of Table 6. To account for the difference in porphyrin dose (195 μg/gbw for CuTCPH versus 220 μg/gbw for CuTCPBr) and the difference in % boron in each porphyrin (31.8% for CuTCPH versus 21.7 for CuTCPBr), the boron concentrations in tissues from rats given CuTCPBr were normalized so that they would be equivalent to the boron concentrations of rats given CuTCPH. This was done by multiplying the boron concentrations in the CuTCPBr group of rats by the CuTCPBr to CuTCPH boron dose ratio of 1.3. The normalized boron concentrations for the CuTCPBr group of rats are listed in column 3 of Table 6.

EMT-6 mammary tumors = test: Boron concentrations in tissues at the time of irradiation (Example 8); format: in vivo, BALB/c mice; conditions: ≈400 μg/g body weight CuTCPBr, euthanized the day of irradiation
From the text: In this example, female BALB/c mice (Taconic Farms, Germantown, N.Y.) (20-25 g) were used in radiotherapy studies to compare tumor control effects in mice bearing EMT-6 mammary tumors. The EMT-6 leg tumors were formed by mincing freshly removed tumor tissue from mice into fragments no larger than 0.5 mm. The fragments were mixed in a saline solution and implanted subcutaneously (sc) in the legs of mice using an 18-gauge trocar. Tumor fragments were used because in this particular location tumors initiated by cell suspensions tend to spread in a thin subcutaneous layer and invade the subjacent muscle. Using tumor fragments, the tumors are palpable, but thinner on the leg than on the dorsal thorax. In late stage, fragment-initiated tumors can invade muscle tissue but not as frequently as do suspension-initiated tumors.
At approximately seven days after tumor implantation, the mice were stratified by tumor volume into six (6) matched experimental groups, which included five groups of twelve (12) mice each and a control group of thirty-three (33). Two groups were treated with ≈400 μg/g body weight CuTCPBr and given two doses of 100 kVp x-irradiation x-rays, two groups were treated with only two doses of 100 kVp x-irradiation, one group received CuTCPBr and were euthanized the day of irradiation. The function of the group which was immediately euthanized was to determine the boron concentration in tissues at the time of irradiation. It was not a control group upon which the effectiveness of treatment was compared. The control group of thirty-three mice was not treated at all.
Tumor to blood boron concentration ratios were about 4:1, which is low due to the high blood values. Such a trend was also observed with CuTCPH at high doses of 400 mg/kg.

[2] = CuTCPBr 432 μg/g body weight, after 2 days
[3] = CuTCPBr 432 μg/g body weight, after 4 days
[4] = 220 μg/gbw CuTCPBr (47.7 μg B/gbw) iv over 48 hours, 3 days after end of infusion
[5] = CuTCPBr 220 μg/gbw iv infusion over 48 hours, 0 days after end of infusion
[6] = CuTCPBr 220 μg/gbw iv infusion over 48 hours, 1 day after end of infusion
[7] = CuTCPBr 220 μg/gbw iv infusion over 48 hours, 2 days after end of infusion
[8] = CuTCPBr 220 μg/gbw iv infusion over 48 hours, 3 days after end of infusion
[9] = normalized to boron dose 61.8 μg B/gbw (x1.3), 3 days after end of infusion

Substance: copper octabromotetracarboranylphenylporphyrin [CuTCPBr]
- Boron Concentration, Tumor (EMT-6 mammary carcinomas; CuTCPBr 432 μg/g body weight (94 μg B/gbw), after 2 days): 256 (51) μg/g
- Boron Concentration, Blood (EMT-6 mammary carcinomas; [2]): 30 (12) μg/g
- Boron Concentration, Brain (EMT-6 mammary carcinomas; [2]): 1.3 (0.4) μg/g
- Boron Concentration, Ears (skin) (EMT-6 mammary carcinomas; [2]): 16 (4.3) μg/g
- Boron Concentration, Liver (EMT-6 mammary carcinomas; [2]): 831 (102) μg/g
- Boron Concentration, Spleen (EMT-6 mammary carcinomas; [2]): 507 (60) μg/g
- Boron Concentration, Tongue (EMT-6 mammary carcinomas; [2]): 43 (4.1) μg/g
- Boron Concentration, Blood (EMT-6 mammary carcinomas; [3]): 0.8 (0.2) μg/g
- Boron Concentration, Brain (EMT-6 mammary carcinomas; [3]): 0.7 (0.1) μg/g
- Boron Concentration, Ears (skin) (EMT-6 mammary carcinomas; [3]): 12 (1.6) μg/g
- Boron Concentration, Liver (EMT-6 mammary carcinomas; [3]): 592 (24) μg/g
- Boron Concentration, Spleen (EMT-6 mammary carcinomas; [3]): 336 (40) μg/g
- Boron Concentration, Tongue (EMT-6 mammary carcinomas; [3]): 37 (4.0) μg/g
- Boron Concentration, Tumor (EMT-6 mammary carcinomas; [3]): 180 (27) μg/g
- decrease of liver boron from two to four days (EMT-6 mammary carcinomas; CuTCPBr 432 μg/g body weight, indicates faster clearance time): 29%
- Boron Concentration, Brain [1, 4]: 0.4 (0) μg/g
- Boron Concentration, Kidney [1, 4]: 11 (1) μg/g
- Boron Concentration, Lacrimal Gland [1, 4]: 28 (13) μg/g
- Boron Concentration, Liver [1, 4]: 477 (25) μg/g
- Boron Concentration, Lung [1, 4]: 123 (42) μg/g
- Boron Concentration, Lymph Nodes [1, 4]: 202 (32) μg/g
- Boron Concentration, Parotid Gland [1, 4]: 85 (36) μg/g
- Boron Concentration, Spinal Cord [1, 4]: 0.9 (0.4) μg/g
- Boron Concentration, Spleen [1, 4]: 632 (41) μg/g
- Boron Concentration, Submaxillary Gland [1, 4]: 68 (8) μg/g
- Boron Concentration, Tongue [1, 4]: 30 (3) μg/g
- Boron concentration, Ears [1, 4]: 8.4 (1.2) μg/g
- Boron Concentration, Tumor ([1]; CuTCPBr 220 μg/gbw (47.7 μg B/gbw) iv infusion over 48 hours, 3 days after end of infusion): 52 (19) μg/g
- Boron Concentration, Blood [1, 5]: 360 (30) μg/g
- Boron Concentration, Tumor [1, 5]: 67 (26) μg/g
- Tumor to Blood Ratio (boron) [1, 5]: 0.19
- Boron Concentration, Blood [1, 6]: 150 (20) μg/g
- Boron Concentration, Tumor [1, 6]: 64 (17) μg/g
- Tumor to Blood Ratio (boron) [1, 6]: 0.43
- Boron Concentration, Blood [1, 7]: 23 (7) μg/g
- Boron Concentration, Tumor [1, 7]: 75 (34) μg/g
- Tumor to Blood Ratio (boron) [1, 7]: 3.3
- Boron Concentration, Blood [1, 8]: 1.4 (0.1) μg/g
- Tumor to Blood Ratio (boron) [1, 8]: 38
- Boron Concentration, Brain, CuTCPBr Normalized [1, 9]: 0.5 µg/g
- Boron Concentration, Ears, CuTCPBr Normalized [1, 9]: 11 µg/g
- Boron Concentration, Kidney, CuTCPBr Normalized [1, 9]: 14 µg/g
- Boron Concentration, Lacrimal Gland, CuTCPBr Normalized [1, 9]: 37 µg/g
- Boron Concentration, Liver, CuTCPBr Normalized [1, 9]: 623 µg/g
- Boron Concentration, Lung, CuTCPBr Normalized [1, 9]: 161 µg/g
- Boron Concentration, Lymph Nodes, CuTCPBr Normalized [1, 9]: 264 µg/g
- Boron Concentration, Parotid Gland, CuTCPBr Normalized [1, 9]: 111 µg/g
- Boron Concentration, Spinal Cord, CuTCPBr Normalized [1, 9]: 1.2 µg/g
- Boron Concentration, Spleen, CuTCPBr Normalized [1, 9]: 825 µg/g
- Boron Concentration, Submaxillary Gland, CuTCPBr Normalized [1, 9]: 89 µg/g
- Boron Concentration, Tongue, CuTCPBr Normalized [1, 9]: 39 µg/g
- Boron Concentration, Tumor, CuTCPBr Normalized [1, 9]: 68 µg/g
- Toxicity ([1]; rats, 220 μg/gbw CuTCPBr or 195 μg/gbw CuTCPH iv over 48 hours): does not appear to be a major problem
- Boron Concentration, Blood (EMT-6 mammary tumors): 68 (19) μg/g
- Boron Concentration, Liver (EMT-6 mammary tumors): 725 (72) μg/g
- Boron Concentration, Muscle (EMT-6 mammary tumors): 12 (3) μg/g
- Boron Concentration, Skin (EMT-6 mammary tumors): 20 (4.3) μg/g
- Boron Concentration, Tumor (EMT-6 mammary tumors; leg tumor): 277 (45) μg/g
